Experimental data from patent publication US11939302B2, “Compounds for the treatment of Alzheimer's disease” (The Governors of the University of Alberta, priority 2020, dated 2024).
No end group written: not given here.

Experiments:
[1] = target: T1, amylin receptor subtype 3 (AMY3) (Homo sapiens, UniProt O60896+P30988); assay: cAMP ELISA in AMY3-HEK cells, reduction of human amylin induced cAMP; type: cell-based; conditions: FIG. 2; for Mode of action indicated by cAMP assays in amylin receptor subtype 3 expressing cells: AMY3 expressing cells; for Human amylin generation of cAMP in the presence of compound: human amylin 0.1 μM, compound 10 μM, AMY3-HEK cells
T1 construct: expressed in transfected cells
T1 sequence (P30988 25-474): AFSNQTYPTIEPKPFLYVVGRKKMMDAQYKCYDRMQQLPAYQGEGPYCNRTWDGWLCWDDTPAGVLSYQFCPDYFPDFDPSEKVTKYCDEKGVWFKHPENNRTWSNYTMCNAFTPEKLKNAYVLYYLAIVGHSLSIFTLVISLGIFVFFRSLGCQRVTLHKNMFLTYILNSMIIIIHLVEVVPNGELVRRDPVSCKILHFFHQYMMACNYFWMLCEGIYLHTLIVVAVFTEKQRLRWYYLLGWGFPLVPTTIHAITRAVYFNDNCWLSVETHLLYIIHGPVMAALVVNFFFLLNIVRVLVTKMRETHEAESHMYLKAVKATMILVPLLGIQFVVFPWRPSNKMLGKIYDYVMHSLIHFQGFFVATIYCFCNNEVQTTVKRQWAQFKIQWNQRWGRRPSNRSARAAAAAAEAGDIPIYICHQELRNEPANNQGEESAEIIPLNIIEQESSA
T1 sequence (O60896 24-148 partner): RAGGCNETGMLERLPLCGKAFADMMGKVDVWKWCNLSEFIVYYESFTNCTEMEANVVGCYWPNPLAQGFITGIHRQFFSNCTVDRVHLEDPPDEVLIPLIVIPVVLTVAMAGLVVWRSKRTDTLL
Experimental: Compounds described herein were screened using a cAMP (cyclic adenosine monophosphate) assay in amylin receptor subtype 3 expressing cells (See FIG. 1).
Cell Cultures. Amylin receptor subtypes (AMY3-HEK cells) stably expressed in human embryonic kidney (HEK293) cell-line were generated and characterized as described in a previous published article (Fu et al., J. Biol. Chem. 2012). The AMY3-HEK cells were grown in a 5% CO2 humidified incubator at 37° C. with DMEM, 10% FBS, and 100 μg/mL Zeocin medium.
ELISA (enzyme-linked immunosorbent assay). Cellular cAMP levels were measured using a parameter cyclic AMP assay kit (R&D Systems) according to the manufacturer's instructions. Briefly, AMY3-HEK cells were plated on 24-well plates overnight. These cells were then incubated with or without the assay compounds and hAmylin for 5 min. The cells were lysed with lysis buffer provided in the assay kit. Standard curves were plotted using the cAMP standards provided in the ELISA kits. All samples were analyzed in duplicate. The plate was measured at 450 nm. Data was plotted, and non-linear regression was fitted with four parameters using Prism software (GraphPad Software, La Jolla, CA).
Compounds were assayed based on potency of reduction at 10 μM of 0.1 μM human Amylin (hAmylin) induced cAMP increases.

[2] = target: T1, amylin receptor subtype 3 (AMY3); assay: Kinetic intracellular Ca2+ changes (Fluo-8L-AM) in AMY3-HEK293 cells; type: cell-based; conditions: human amylin 0.5 μM; compound 0.01-10 μM range; FIG. 3
Experimental: Kinetic Intracellular Ca^2+ Changes. Dynamic changes of the free cytosolic Ca2+ concentration were monitored with microplate reader. For monitor amylin induced intracellular Ca^2+, AMY3-HEK293 cells were plated on 96 well cell culture plates and incubated at 37° C. for 12-36 h with DMEM, 10% FBS, and Zeocin medium. For Ca^2+ changes, the AMY3-HEK293 cells were washed twice with assay solution which ion content similar to extracellular brain fluid thus containing the following: 130 mM NaCl, 4 mM KCl, 1 mM MgCl2, 2 mM CaCl2), 10 mM HEPES, and 10 mM glucose (pH 7.35). Then incubated with the membrane-permeant fluorescent Ca^2+-sensitive dye Fluo-8L-AM (AAT Bioquest, Inc., Sunnyvale, CA), with 5 μM of the agent for 40 min at room temperature (20-23° C.) in assay solution. The test compounds were added in various concentrations of 0.01, 0.1, 1, and 10 μM for 10 min and kinetic measured the fluorescent intensity with Varioskan-LUX microplate reader (Thermo Fisher Scientific, Waltham, MA). Human amylin were dissolved in sterile bidistilled water at 1 mM stock solution and incubated at room temperature for 10 min before dilution with assay solution for use at a final concentration of 0.5 μM. Fluorescent intensity was measured at excitation/emission wavelength of 488/514 nm, excitation bandwidth 12 nm, kinetic interval 1 min, and measure time at 100 ms. […]

N2a neuronal cells = assay: MTT cell death assay, amyloid beta toxicity; type: cell-based, mouse; conditions: N2a cell line; Aβ1-42 10 μM, soluble oligomeric; 24-48 h; FIG. 4
Experimental: MTT Cell Death Assay. The N2a (mouse) and SK-N-SH (human) neuronal cells were seeded to 5000 cells/well in a 96-well plate in DMEM medium, 10% FBS and incubated overnight. Cells in culture medium were incubated either with or without the assay compounds and Aβ1-42, 10 μM for 24-48 h. At the end of treatment, 20 μL of 5 mg/mL 3-(4,5-dimethylthiazol-2-yl)-2,5-diphenyltetrazolium bromide (MTT, Sigma) was added to each well and incubated at 37° C. for 3 h. Medium was removed, 100 μL of MTT solvent (isopropanol with 4 mM HCl) was added to each well, and the plates were incubated for 30 min at room temperature on a rotating shaker. Plates were analyzed on a microplate reader at a 562 nm wavelength.

[3] = test system: hippocampal long term potentiation (LTP); assay: Hippocampal long term potentiation (LTP) electrophysiology in brain slices; set-up: species or system mice; conditions: for LTP levels in hippocampal slices from transgenic AD mice (TgCRND8), chronically depressed LTP: compared with age matched wild type control (WT_Cont); for Effect on LTP from wild type control (WT_Cont) mice: WT_Cont slices; for Amyloid beta (Aβ)-induced depression of LTP / Human amylin-induced depression of LTP: compound 1 μM, brain hippocampal slices
Source text: Hippocampal long term potentiation (LTP) electrophysiology experiments: an in vitro cellular surrogate for memory. Brains were quickly removed from mice following decapitation, placed in a cold artificial cerebral spinal fluid (aCSF) on a vibratome chamber and transverse sections cut through the hippocampus. The aCSF contained (in mM) 124 NaCl, 3 KCl, 2.4 CaCl2), 2 MgCl2, 1.25 NaH2PO4, 26 NaHCO3 and 10 D-glucose, and was equilibrated with 95% 02 and 5% CO2. Hippocampal slices ([…]) were maintained in aCSF-filled holding chamber at room temperature for at least 1 hour and individually transferred to the submerged glass bottom recording chamber, which was constantly perfused with aCSF (2 mL/min) at 30° C. Field excitatory postsynaptic potential (fEPSP) was recorded with a metallic (Pt/Ir) electrode (FHC, Bowdoin, ME) from the stratum radiatum layer of Cornu ammonis 1 region of the hippocampus (CA1) area, and the Schaffer collateral afferents were stimulated with 100-μs test pulses via a bipolar cluster electrode (FHC) (Kimura et al., 2012, Kimura et al. 2016). To evaluate basal synaptic transmission, we applied different stimulation strengths (75 μA to 300 μA in steps of 25 μA) and plotted the amplitudes of presynaptic fiber volleys versus the corresponding fEPSP slopes to compare the slope of input/output (I/O) curves of fEPSP. For long-term potentiation (LTP) experiments, the stimulus strength was set to elicit 40-50% of the maximum fEPSP amplitude and test pulses were delivered to Schaffer collaterals once every 30 seconds. LTP was induced by 3-theta-burst stimulation (3-TBS) protocol (each burst consisted of 4 pulses at 100 Hz with a 200-ms inter-burst interval). Before 3-TBS or drug application, the responses were monitored for at least 10 minutes to ensure a stable baseline of fEPSP. […] Results were from various treatment groups were plotted as histograms with means±standard error (SE). Statistical analysis was performed using one-way ANOVA followed by post-hoc Tukey's honestly significant difference (HSD) test (for multiple comparisons) or Student's t test (for pair-wise comparisons). All drugs and chemicals were applied directly to the slice via bath perfusion, which allowed for a complete exchange of the perfusate in less than a minute and a half.

Aβ toxicity = conditions: Jhamandas et al., 2004; 2011; 2012; cited from earlier work
long-term potentiation = conditions: hippocampus of TgCRND8 mice; Kimura et al., 2012; 2016; cited from earlier work

For `O=C1CN(C(=O)CCO)c2ccccc2N1` [Compound 10, 4-(3-hydroxypropanoyl)-3,4-dihydroquinoxalin-2(1H)-one], the “Mode of action indicated by cAMP assays in amylin receptor subtype 3 expressing cells” value [1] was “amylin receptor antagonists”, the “Human amylin generation of cAMP in the presence of compound” value [1] was “attenuated” and the “Elevations in intracellular calcium evoked by human amylin” value [2] was “attenuated”. For the same compound, the “Cytoprotection against amyloid beta (Abeta) toxicity, cell viability by MTT” value (N2a neuronal cells) was “cytoprotective”, the “LTP levels in hippocampal slices from transgenic AD mice (TgCRND8), chronically depressed LTP” value [3] was “increased LTP levels to levels observed in WT_Cont mice” and the “Effect on LTP from wild type control (WT_Cont) mice” value [3] was “no effects”. For the same compound, the “Amyloid beta (Aβ)-induced depression of LTP” value [3] was “blocked” and the “Human amylin-induced depression of LTP” value [3] was “blocked”.
With `O=c1[nH]c2ccccc2n(CCCO)c1=O` [Compound 1, 1-(3-hydroxypropyl)-1,4-dihydroquinoxaline-2,3-dione] the “Mode of action indicated by cAMP assays in amylin receptor subtype 3 expressing cells” value [1] was “amylin receptor antagonists”, the “Human amylin generation of cAMP in the presence of compound” value [1] was “attenuated” and the “Elevations in intracellular calcium evoked by human amylin” value [2] was “attenuated”. For the same compound, the “Cytoprotection against amyloid beta (Abeta) toxicity, cell viability by MTT” value (N2a neuronal cells) was “cytoprotective”, the “LTP levels in hippocampal slices from transgenic AD mice (TgCRND8), chronically depressed LTP” value [3] was “increased LTP levels” and the “Effect on LTP from wild type control (WT_Cont) mice” value [3] was “no effects”. The “Amyloid beta (Aβ)-induced depression of LTP” value [3] was “blocked” and the “Human amylin-induced depression of LTP” value [3] was “blocked”.
For “AC253: peptide antagonist of the amylin receptor, 24 amino acids, SEQ ID NO: 1 (Ac-LGRLSQELHRLQTYPRTNTGSNTY)”, the “Neuroprotection against Aβ toxicity” value (Aβ toxicity) is listed as “neuroprotective” and the “Aβ- or human amylin-induced depression of long-term potentiation” value (long-term potentiation) is listed as “reverse impairment”.
